Measured values from patent publication US4549023A, “3-Aminoindazole derivatives” (priority 1980, dated 1985).
Read-outs that look alike come from different tables or passages of the source.

Key:
[1] = Acute toxicity (LD50), intravenous injection; settings: mouse, in vivo, male ddY-strain mice, read-out: LD50, Table 19
Experimental: Acute toxicity was measured by an ordinary method described in Finney DJ Probit Analysis Cambridge University Press 48, (1952). Ddy mice weighing about 18 g on average, each group consisting of 10 animals, were […] injected with the physiological salt solution containing the test compound. The amount of the test compound administered was varied in 5-8 groups. Three days after the administration, dead animals were counted in each group. The amount of the test compound killing half the number of the animals (LD50) was calculated from the results.
The acute toxicity of the 3-aminoindazole derivatives and their hydrochloric acid salts obtained by Examples 1-49 of this invention was measured by giving male ddY-strain mice an intravenous injection.

[2] = tested on: carrageenin edema in rat's paw; assay: Carrageenin Edema Test in Rat's Paw (anti-inflammatory activity); type: in vivo, Female Wistar rats; settings: for inhibition in vivo at 100 mg/kg: Rattus norvegicus, hydrochloric acid salts; for Inhibition values compared with comparative compounds: Table 1, 100 mg/kg
Experimental: A standard method of Carrageenin Edema Test in Rat's Paw described in C. A. Winter et al., Proc. Soc. Exp. Biol. Med., 111, 544 (1962) was employed.
[…] One hour later, the pad of a hind paw of the rat was injected with 0.1 ml of 1% aqueous carrageenin solution. The volume of the paw was measured both before the injection of carrageenin and three hours after the injection.
The edema inhibition percentage of the test compound was calculated from the ratio of the increase in the volume of the affected paw of the test animals to the increase in the volume of the affected paw of the controls.
The anti-inflammatory activity of the 3-aminoindazole derivative hydrochloric acid salts of this invention was measured.
The anti-inflammatory activity of the 3-aminoindazole derivative hydrochloric acid salts obtained by Examples 1-49 of this invention was measured by the standard method of carrageenin edema test. In these tests, the amount of the administration of the salts was 100 mg/kg. The results are shown in Table 17 (Inhibition (%) was measured three hours after the injection).

[3] = po, 3 h, 100 mg/kg, measured three hours after the injection, read-out: Inhibition (carrageenin edema), Table 17
[4] = 100 mg/kg, oral, 3 h after carrageenin, read-out: Inhibition (carrageenin edema), Table 1

c1ccc2c(NCCCN3CCCCCC3)n[nH]c2c1 [Compound (5), 3-(3-homopiperidinopropylamino)indazole]
LD50 at 72 h [1]: 175 mg/kg
inhibition in vivo at 100 mg/kg [2, 3]: 59%

CCCn1nc(N)c2ccccc21 [Compound C-2, 1-propyl-3-aminoindazole, reference compound]
inhibition in vivo at 100 mg/kg [2, 4]: 7%

CCN(CC)C(CCNc1nn(CCC(C)N(C)C)c2ccccc12)CC(C)C (stereo not drawn) [Compound (49), 1-(3-dimethylaminobutyl)-3-(3-diethylamino-5-methylhexylamino)indazole]
LD50 at 72 h [1]: 247 mg/kg
inhibition in vivo at 100 mg/kg [2, 3]: 21%

OC1CCN(CCCNc2n[nH]c3ccccc23)CC1 [Compound (8), 3-{3-(4-hydroxypiperidino)propylamino}indazole]
LD50 at 72 h [1]: 358 mg/kg
inhibition in vivo at 100 mg/kg [2, 3]: 47%

Nc1nn(CCN2CCCCC2)c2ccccc12 [Compound (17), 1-(2-piperidinoethyl)-3-aminoindazole]
LD50 at 72 h [1]: 143 mg/kg
inhibition in vivo at 100 mg/kg [2, 3]: 47%

CC(C)CC(CCNc1n[nH]c2ccccc12)N1CCCCC1 (stereo not drawn) [Compound (15), 3-(5-methyl-3-piperidinohexylamino)indazole]
LD50 at 72 h [1]: 144 mg/kg
inhibition in vivo at 100 mg/kg [2, 3]: 42%

CCN(CC)CCCNc1nn(CCC(C)N(C)C)c2ccccc12 (stereo not drawn) [Compound (46), 1-(3-dimethylaminobutyl)-3-(3-diethylaminopropylamino)indazole]
LD50 at 72 h [1]: 272 mg/kg
inhibition in vivo at 100 mg/kg [2, 3]: 29%

CCN(CC)CCCn1nc(NCCCCCCN2CCCCC2)c2ccccc21 [Compound (35)]
LD50 at 72 h [1]: 193 mg/kg
inhibition in vivo at 100 mg/kg [2, 3]: 21%

c1ccc2c(NCCN3CCCCC3)n[nH]c2c1 [Compound (1), 3-(2-piperidinoethylamino)indazole]
LD50 at 72 h [1]: 146 mg/kg
inhibition in vivo at 100 mg/kg [2, 3]: 48%

Nc1nn(CCCN2CCC(O)CC2)c2ccccc12 [Compound (24), 1-{3-(4-hydroxypiperidino)propyl}-3-aminoindazole]
LD50 at 72 h [1]: 367 mg/kg
inhibition in vivo at 100 mg/kg [2, 3]: 46%

CCCCN(CCCC)CCCNc1n[nH]c2ccccc12 [Compound (11), 3-(3-di-n-butylaminopropylamino)indazole]
LD50 at 72 h [1]: 115 mg/kg
inhibition in vivo at 100 mg/kg [2, 3]: 65%

c1ccc2c(c1)c(NCCCCCCN1CCCCC1)nn2CCCN1CCCCC1 [Compound (40)]
LD50 at 72 h [1]: 122 mg/kg
inhibition in vivo at 100 mg/kg [2, 3]: 21%

CN1CCN(CCCNc2n[nH]c3ccccc23)CC1 [Compound (13), 3-{3-(4-methylpiperazino)propylamino}indazole]
LD50 at 72 h [1]: 359 mg/kg
inhibition in vivo at 100 mg/kg [2, 3]: 30%
inhibition in vivo at 100 mg/kg [2, 4]: 30%
Inhibition values compared with comparative compounds [2]: higher than that of the compound C-1

Nc1nn(CCCN2CCCCCC2)c2ccccc12 [Compound (21), 1-(3-homopiperidinopropyl)-3-aminoindazole]
LD50 at 72 h [1]: 184 mg/kg
inhibition in vivo at 100 mg/kg [2, 3]: 58%

Nc1nn(CCCN2CCCC2)c2ccccc12 [Compound (20), 1-(3-pyrrolidinopropyl)-3-aminoindazole]
LD50 at 72 h [1]: 98 mg/kg
inhibition in vivo at 100 mg/kg [2, 3]: 29%

c1ccc2c(NCCCN3CCCC3)n[nH]c2c1 [Compound (4), 3-(3-pyrrolidinopropylamino)indazole]
LD50 at 72 h [1]: 97 mg/kg
inhibition in vivo at 100 mg/kg [2, 3]: 30%
inhibition in vivo at 100 mg/kg [2, 4]: 30%
Inhibition values compared with comparative compounds [2]: higher than that of the compound C-1

CC(CCNc1nn(CCC(C)N2CCCCC2)c2ccccc12)N(C)C (stereo not drawn) [Compound (45)]
LD50 at 72 h [1]: 124 mg/kg
inhibition in vivo at 100 mg/kg [2, 3]: 21%

c1ccc2c(c1)c(NCCCN1CCCCC1)nn2CCCN1CCCCC1 [Compound (39), 1-(3-piperidinopropyl)-3-(3-piperidinopropylamino)indazole]
LD50 at 72 h [1]: 102 mg/kg
inhibition in vivo at 100 mg/kg [2, 3]: 28%
inhibition in vivo at 100 mg/kg [2, 4]: 28%

Nc1nn(CCc2ccccc2)c2ccccc12 [Compound C-3, 1-(2-phenylethyl)-3-aminoindazole, reference compound]
inhibition in vivo at 100 mg/kg [2, 4]: 7%

CCN(CC)CCCn1nc(NCCCN2CCCCC2)c2ccccc21 [Compound (34), 1-(3-diethylaminopropyl)-3-(3-piperidinopropylamino)indazole]
LD50 at 72 h [1]: 172 mg/kg
inhibition in vivo at 100 mg/kg [2, 3]: 28%
inhibition in vivo at 100 mg/kg [2, 4]: 28%

Nc1nn(CCCCCCN2CCCCC2)c2ccccc12 [Compound (19), 1-(6-piperidinohexyl)-3-aminoindazole]
LD50 at 72 h [1]: 144 mg/kg
inhibition in vivo at 100 mg/kg [2, 3]: 29%

CCCCN(CCCC)CCCNc1nn(CCCN(CC)CC)c2ccccc12 [Compound (36), 1-(3-diethylaminopropyl)-3-(3-di-n-butylaminopropylamino)indazole]
LD50 at 72 h [1]: 179 mg/kg
inhibition in vivo at 100 mg/kg [2, 3]: 31%

CCN(CC)CCCn1nc(N)c2ccccc21 [Compound (26), 1-(3-diethylaminopropyl)-3-aminoindazole]
LD50 at 72 h [1]: 243 mg/kg
inhibition in vivo at 100 mg/kg [2, 3]: 61%

CC(CCn1nc(NCCCN2CCCCC2)c2ccccc21)N(C)C (stereo not drawn) [Compound (47), 1-(3-dimethylaminobutyl)-3-(3-piperidinopropylamino)indazole]
LD50 at 72 h [1]: 212 mg/kg
inhibition in vivo at 100 mg/kg [2, 3]: 28%

CN(C)CCNc1n[nH]c2ccccc12 [Compound (12), 3-(2-dimethylaminoethylamino)indazole]
LD50 at 72 h [1]: 334 mg/kg
inhibition in vivo at 100 mg/kg [2, 3]: 52%

CCN(CC)CCCNc1nn(CCC(C)N2CCCCC2)c2ccccc12 (stereo not drawn) [Compound (42), 1-(3-piperidinobutyl)-3-(3-diethylaminopropylamino)indazole]
LD50 at 72 h [1]: 167 mg/kg
inhibition in vivo at 100 mg/kg [2, 3]: 29%

CN1CCN(CCCn2nc(N)c3ccccc32)CC1 [Compound (32), 1-{3-(4-methylpiperazino)propyl}-3-aminoindazole]
LD50 at 72 h [1]: 368 mg/kg
inhibition in vivo at 100 mg/kg [2, 3]: 27%

CC(C)CC(CCn1nc(N)c2ccccc21)N(C)C (stereo not drawn) [Compound (31), 1-(3-dimethylamino-5-methylhexyl)-3-aminoindazole]
LD50 at 72 h [1]: 154 mg/kg
inhibition in vivo at 100 mg/kg [2, 3]: 28%

CN(C)CCNc1nn(-c2ccccc2)c2ccccc12 [Compound C-5, 1-phenyl-3-(2-dimethylaminoethylamino)indazole, reference compound]
Inhibition (carrageenin edema), Table 2 ([2]; 25 mg/kg, oral): 15%
Inhibition (carrageenin edema), Table 2 ([2]; 50 mg/kg, oral): 18%
Inhibition (carrageenin edema), Table 2 ([2]; 100 mg/kg, oral): 55%

CCN(CC)CCCn1nc(NCCC(C)N2CCCCC2)c2ccccc21 (stereo not drawn) [Compound (37), 1-(3-diethylaminopropyl)-3-(3-piperidinobutylamino)indazole]
LD50 at 72 h [1]: 169 mg/kg
inhibition in vivo at 100 mg/kg [2, 3]: 27%

CC1CCCC(C)N1CCCn1nc(N)c2ccccc21 (stereo not drawn) [Compound (23), 1-{3-(2,6-dimethylpiperidino)propyl}-3-aminoindazole]
LD50 at 72 h [1]: 152 mg/kg
inhibition in vivo at 100 mg/kg [2, 3]: 34%

ClC1CCN(CCCNc2n[nH]c3ccccc23)CC1 [Compound (9), 3-{3-(4-chloropiperidino)propylamino}indazole]
LD50 at 72 h [1]: 347 mg/kg
inhibition in vivo at 100 mg/kg [2, 3]: 68%

CC(CCNc1n[nH]c2ccccc12)N1CCCCC1 (stereo not drawn) [Compound (14), 3-(3-piperidinobutylamino)indazole]
LD50 at 72 h [1]: 95 mg/kg
inhibition in vivo at 100 mg/kg [2, 3]: 55%

CC(CCn1nc(N)c2ccccc21)N1CCCCC1 (stereo not drawn) [Compound (29), 1-(3-piperidinobutyl)-3-aminoindazole]
LD50 at 72 h [1]: 104 mg/kg
inhibition in vivo at 100 mg/kg [2, 3]: 46%

CC1CCCC(C)N1CCCNc1n[nH]c2ccccc12 (stereo not drawn) [Compound (7), 3-{3-(2,6-dimethylpiperidino)propylamino}indazole]
LD50 at 72 h [1]: 143 mg/kg
inhibition in vivo at 100 mg/kg [2, 3]: 35%

CC(C)CC(CCn1nc(N)c2ccccc21)N1CCCCC1 (stereo not drawn) [Compound (30), 1-(5-methyl-3-piperidinohexyl)-3-aminoindazole]
LD50 at 72 h [1]: 153 mg/kg
inhibition in vivo at 100 mg/kg [2, 3]: 35%

CCN(CC)CCCNc1nn(CCCN(CC)CC)c2ccccc12 [Compound (33), 1-(3-diethylaminopropyl)-3-(3-diethylaminopropylamino)indazole]
LD50 at 72 h [1]: 238 mg/kg
inhibition in vivo at 100 mg/kg [2, 3]: 29%
inhibition in vivo at 100 mg/kg [2, 4]: 29%

CCCNc1n[nH]c2ccccc12 [Compound C-1, 3-(propylamino)indazole, reference compound]
inhibition in vivo at 100 mg/kg [2, 4]: 7%

CC(CCn1nc(NCCC(C)N2CCCCC2)c2ccccc21)N(C)C (stereo not drawn) [Compound (48), 1-(3-dimethylaminobutyl)-3-(3-piperidinobutylamino)indazole]
LD50 at 72 h [1]: 213 mg/kg
inhibition in vivo at 100 mg/kg [2, 3]: 27%

CC(CCNc1nn(CCCN2CCCCC2)c2ccccc12)N1CCCCC1 (stereo not drawn) [Compound (41), 1-(3-piperidinopropyl)-3-(3-piperidinobutylamino)indazole]
LD50 at 72 h [1]: 99 mg/kg
inhibition in vivo at 100 mg/kg [2, 3]: 28%

CC(CCn1nc(NCCCN2CCCCC2)c2ccccc21)N1CCCCC1 (stereo not drawn) [Compound (43), 1-(3-piperidinobutyl)-3-(3-piperidinopropylamino)indazole]
LD50 at 72 h [1]: 98 mg/kg
inhibition in vivo at 100 mg/kg [2, 3]: 28%
